Laboratory results from PubChem BioAssay AID2060882 (Molecular Pharmacology Branch, DTP, NCI, 2025).

Tested on: 898857-211-R-J1-PDC complex spheroids, growth % test/control
Assay: Anticancer human tumor 898857-211-R-J1-PDC patient-derived melanoma cell line growth inhibition [RAS]
Settings: for IC50: curve of first compound; for viability, T/C: stronger effect = lower value; active means viability on the fitted dose curve at most 10% of control; inactive means the rest
Summary of the method: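 Agents were tested in combination matrices in half-log decrements from a top concentration at or near clinical Cmax (10 microM if undetermined). Targets were multi-cell spheroids of tumour lines plus HUVEC and MSC stromal cells.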
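Further: spheroids exposed to compound for seven days before readout.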
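Wherever viability, T/C is given: 100% = DMSO vehicle control wells.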

C=CC(=O)N1CCN(c2nc(OCC3CCCN3C)nc3c(F)c(-c4nc(N)cc(C)c4C(F)(F)F)c(Cl)cc23)C(C)C1 (configuration not stated) + C#Cc1c(F)ccc2cc(O)cc(-c3ncc4c(N5CC6CCC(C5)N6)nc(OCC56CCCN5CC(F)C6)nc4c3F)c12
> 1 µM: IC50 (second compound 0.0316 µM) | IC50 (second compound 0.1 µM) | IC50 (second compound 0.316 µM) | IC50 (second compound 1 µM) | IC50 (second compound 3.16 µM)
inactive: viability, T/C (second compound 0.0316 µM, first compound 0.00316 µM) 107% | viability, T/C (second compound 0.0316 µM, first compound 0.01 µM) 92.9% | viability, T/C (second compound 0.0316 µM, first compound 0.0316 µM) 103% | viability, T/C (second compound 0.0316 µM, first compound 0.1 µM) 103% | viability, T/C (second compound 0.0316 µM, first compound 0.316 µM) 117% | viability, T/C (second compound 0.0316 µM, first compound 1 µM) 118% | viability, T/C (second compound 0.1 µM, first compound 0.00316 µM) 109% | viability, T/C (second compound 0.1 µM, first compound 0.01 µM) 107% | viability, T/C (second compound 0.1 µM, first compound 0.0316 µM) 109% | viability, T/C (second compound 0.1 µM, first compound 0.1 µM) 105% | viability, T/C (second compound 0.1 µM, first compound 0.316 µM) 126% | viability, T/C (second compound 0.1 µM, first compound 1 µM) 117% | viability, T/C (second compound 0.316 µM, first compound 0.00316 µM) 95.8% | viability, T/C (second compound 0.316 µM, first compound 0.01 µM) 91.4% | viability, T/C (second compound 0.316 µM, first compound 0.0316 µM) 100% | viability, T/C (second compound 0.316 µM, first compound 0.1 µM) 96% | viability, T/C (second compound 0.316 µM, first compound 0.316 µM) 114% | viability, T/C (second compound 0.316 µM, first compound 1 µM) 129% | viability, T/C (second compound 1 µM, first compound 0.00316 µM) 104% | viability, T/C (second compound 1 µM, first compound 0.01 µM) 102% | viability, T/C (second compound 1 µM, first compound 0.0316 µM) 101% | viability, T/C (second compound 1 µM, first compound 0.1 µM) 104% | viability, T/C (second compound 1 µM, first compound 0.316 µM) 105% | viability, T/C (second compound 1 µM, first compound 1 µM) 98.9% | viability, T/C (second compound 3.16 µM, first compound 0.00316 µM) 99.4% | viability, T/C (second compound 3.16 µM, first compound 0.01 µM) 93.5% | viability, T/C (second compound 3.16 µM, first compound 0.0316 µM) 86.6% | viability, T/C (second compound 3.16 µM, first compound 0.1 µM) 106% | viability, T/C (second compound 3.16 µM, first compound 0.316 µM) 116% | viability, T/C (second compound 3.16 µM, first compound 1 µM) 87.3% | viability, T/C (second compound 10 µM, first compound 0.00316 µM) 56.5% | viability, T/C (second compound 10 µM, first compound 0.01 µM) 39.5% | viability, T/C (second compound 10 µM, first compound 0.0316 µM) 41.1% | viability, T/C (second compound 10 µM, first compound 0.1 µM) 50.5% | viability, T/C (second compound 10 µM, first compound 0.316 µM) 21.3%
< 0.00316 µM: IC50 (second compound 10 µM)
active: viability, T/C (second compound 10 µM, first compound 1 µM) 1.25%
